From patent US9725445B2, “Cycloalkyl nitrile pyrazolo pyridones as Janus kinase inhibitors” (Merck Sharp & Dohme Corp., priority 2013, dated 2017)

What follows are molecules tested against JAK1 (Homo sapiens (Human), UniProt P23458) (assay: Jak biochemical HTRF assay, JAK1). Conditions: HTRF biochemical assay, recombinant GST-tagged catalytic domain; read-out: JAK1 IC50.
Description: Jak Biochemical HTRF Assay Protocol
The ability of compounds to inhibit the activity of JAK1, JAK2, JAK3, and Tyk2 was measured using a recombinant purified GST-tagged catalytic domain for each enzyme (Invitrogen JAK1 #M4290, JAK2 #M4290, JAK3 #M4290, Tyk2 #M4290) in an HTRF format biochemical assay. […] The basic assay protocol is as follows: First, 250 nL of diluted compounds in DMSO were dispensed into the wells of a dry 384-well Black plate (Greiner #781076) using a Labcyte Echo 555 acoustic dispenser. Subsequent reagent additions employed an Agilent Bravo. […] After equilibration, 2 μL of 10×ATP in 1× assay buffer was added to initiate the kinase reaction and the plates were shaken and then incubated at room temperature for 120 minutes. […] Plates were shaken and centrifuged and then incubated 60 minutes at room temperature and then read on a Perkin Elmer Envision (λex=337 nm, λem=665 and 615 nm, TRF delay time=20 μs). HTRF signal=10,000*665 nm reading/615 nm reading. After normalization to untreated controls, the percent inhibition of the HTRF signal at each compound concentration was calculated. The plot of percent inhibition versus the log of compound concentration was fit with a 4-parameter dose response equation to calculate IC50 values.
Final Reaction Conditions were:
Examples of the instant invention were evaluated in JAK1 and JAK2 in vitro binding assays.

JAK1, sequence (P23458 875-1153): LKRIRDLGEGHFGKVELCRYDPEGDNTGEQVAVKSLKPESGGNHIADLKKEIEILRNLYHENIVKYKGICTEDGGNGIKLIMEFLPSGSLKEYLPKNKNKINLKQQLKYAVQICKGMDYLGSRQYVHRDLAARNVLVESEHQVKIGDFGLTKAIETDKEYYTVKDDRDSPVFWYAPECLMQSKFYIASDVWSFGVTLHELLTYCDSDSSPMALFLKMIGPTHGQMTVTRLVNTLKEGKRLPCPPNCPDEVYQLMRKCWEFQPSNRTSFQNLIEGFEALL

SMILES | IC50 [nM]
CC(C)(C)OC(=O)C1CCC(N2Cc3cc(Nc4nn([C@H]5CCCC[C@@H]5C#N)c5cc[nH]c(=O)c45)ccc3C2=O)CC1 (single isomer, unassigned) [Example 3-134, (cis or trans)tert-butyl 4-(5-((1-((1S,2S)-2-cyanocyclohexyl)-4-oxo-4,5-dihydro-1H-pyrazolo[4,3-c]pyridin-3-yl)amino)-1-oxoisoindolin-2-yl)cyclohexanecarboxylate] | 0.16
N#C[C@H]1CCCC[C@@H]1n1nc(Nc2cccc(CN)c2)c2c(=O)[nH]ccc21 [Example 6-1, (1S,2S)-2-(3-((3-(Aminomethyl)phenyl)amino)-4-oxo-4,5-dihydro-1H-pyrazolo[4,3-c]pyridin-1-yl)cyclohexanecarbonitrile] | 1.5
CS(=O)(=O)c1ccc(Nc2nn([C@H]3CCC[C@@H]3C#N)c3cc[nH]c(=O)c23)cc1 [Example 3-94, (1S,2S)-2-(3-{[4-(methylsulfonyl)phenyl]amino}-4-oxo-4,5-dihydro-1H-pyrazolo[4,3-c]pyridin-1-yl)cyclopentanecarbonitrile] | 0.12
N#C[C@H]1CCCC[C@@H]1n1nc(Nc2ccc3c(c2)CN(CC2CC2)C3)c2c(=O)[nH]ccc21 [Example 3-77, (1S,2S)-2-(3-{[2-(cyclopropylmethyl)-2,3-dihydro-1H-isoindol-5-yl]amino}-4-oxo-4,5-dihydro-1H-pyrazolo[4,3-c]pyridin-1-yl)cyclohexanecarbonitrile] | 0.52
CC(C)(C)[S@@+]([O-])N[C@@H](c1ccc(Nc2nn([C@H]3CCCC[C@@H]3C#N)c3cc[nH]c(=O)c23)cc1)C(F)(F)F (stereo in doubt) [Example 3-55] | 0.52
CC(C)(CCO)N1Cc2cc(Nc3nn([C@H]4CCCC[C@@H]4C#N)c4cc[nH]c(=O)c34)ccc2S1(=O)=O [Example 3-81, (1S,2S)-2-(3-{[2-(3-hydroxy-1,1-dimethylpropyl)-1,1-dioxido-2,3-dihydro-1,2-benzisothiazol-5-yl]amino}-4-oxo-4,5-dihydro-1H-pyrazolo[4,3-c]pyridin-1-yl)cyclohexanecarbonitrile] | 0.055
N#C[C@H]1CCCC[C@@H]1n1nc(Nc2ccc3c(c2)C(O)(CO)CCS3(=O)=O)c2c(=O)[nH]ccc21 (stereo partly drawn) [Example 3-48, (1S,2S)-2-(3-{[4-hydroxy-4-(hydroxymethyl)-1,1-dioxido-3,4-dihydro-2H-thiochromen-6-yl]amino}-4-oxo-4,5-dihydro-1H-pyrazolo[4,3-c]pyridin-1-yl)cyclohexanecarbonitrile] | 18

Continued, values first:

IC50 [nM] | SMILES
0.39 | CC(c1ccc(Nc2nn([C@H]3CCCC[C@@H]3C#N)c3cc[nH]c(=O)c23)cc1)n1nccn1 (single isomer, unassigned) [Example 15-21, (1S,2S)-2-[4-oxo-3-({4-[(1S or 1R)-1-(2H-1,2,3-triazol-2-yl)ethyl]phenyl}amino)-4,5-dihydro-1H-pyrazolo[4,3-c]pyridin-1-yl]cyclohexanecarbonitrile]
0.53 | N#C[C@H]1CCCC[C@@H]1n1nc(Nc2ccc([C@]3(O)CC[C@H](C(=O)O)CC3)cc2)c2c(=O)[nH]ccc21 [Example 17-2]
0.25 | CC(C)C(c1ccc(Nc2nn([C@H]3CCCC[C@@H]3C#N)c3cc[nH]c(=O)c23)cc1)n1nccn1 (single isomer, unassigned) [Example 15-31, (1S,2S)-2-[3-({4-[(1R or 1S)-2-methyl-1-(2H-1,2,3-triazol-2-yl)propyl]phenyl}amino)-4-oxo-4,5-dihydro-1H-pyrazolo[4,3-c]pyridin-1-yl]cyclohexanecarbonitrile]
5.1 | COCC(C)(C)CN1Cc2cc(Nc3nn([C@H]4CCCCC[C@@H]4C#N)c4cc[nH]c(=O)c34)ccc2S1(=O)=O (single isomer, unassigned) [Example 15-49, (1S,2S or 1R,2R)-2-(3-{[2-(3-methoxy-2,2-dimethylpropyl)-1,1-dioxido-2,3-dihydro-1,2-benzisothiazol-5-yl]amino}-4-oxo-4,5-dihydro-1H-pyrazolo[4,3-c]pyridin-1-yl)cycloheptanecarbonitrile]
